Measured values taken from ChEMBL document CHEMBL1201862, “PubChem BioAssay data set” (2004).
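1) Cells in 96-well plates. 2) Compound, 48 h, 5 concentrations. 3) Linear interpolation between surrounding doses. 4) Unreached endpoint = highest concentration. At the GI50, growth is halved.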 Active and inactive are the calls of the source. No stated cut-off is given here; in the data, active = GI50 up to about 1.1 µM and inactive = higher.

Columns and labels:
Test in all cases: NCI tumour cell line growth inhibition, 48 h
[1] = test system: A498
[2] = test system: Hs-578T
[3] = test system: IGROV-1
[4] = test system: KM12
[5] = test system: M14
[6] = test system: NCI/ADR-RES
[7] = test system: OVCAR-5
[8] = test system: SF-268
[9] = test system: SF-295
[10] = test system: SK-MEL-28
[11] = test system: SNB-19
[12] = test system: SR
[13] = test system: SW-620
[14] = test system: U-251
[15] = test system: UACC-257
[16] = test system: COLO 205
[17] = test system: HL-60
[18] = test system: RPMI-8226
[19] = test system: SK-OV-3

Measured: GI50

c1ccc2sc(SCN(C3CCCCC3)C3CCCCC3)nc2c1
inactive: [1] > 100 µM | [2] > 100 µM | [3] > 100 µM | [4] > 100 µM | [5] > 100 µM | [6] > 100 µM | [7] > 100 µM | [8] > 100 µM | [9] > 100 µM | [10] > 100 µM | [11] > 100 µM | [12] > 100 µM | [13] > 100 µM | [14] > 100 µM | [15] > 100 µM

COc1ccc(O)c(C#N)c1C#N.COc1ccc(OC)c(C#N)c1C#N
inactive: [1] > 100 µM | [16] > 100 µM | [17] > 100 µM | [3] > 100 µM | [4] > 100 µM | [6] > 100 µM | [7] > 100 µM | [18] > 100 µM | [8] > 100 µM | [9] > 100 µM | [10] > 100 µM | [19] > 100 µM | [11] > 100 µM | [13] > 100 µM | [14] > 100 µM | [15] > 100 µM

CNC(=O)OCc1c(CO)nc(SC)n1C
inactive: [1] > 100 µM | [16] > 100 µM | [17] > 100 µM | [3] > 100 µM | [4] > 100 µM | [6] > 100 µM | [7] > 100 µM | [18] > 100 µM | [8] > 100 µM | [9] > 100 µM | [10] > 100 µM | [19] > 100 µM | [11] > 100 µM | [13] > 100 µM | [14] > 100 µM | [15] > 100 µM

O=C(O)c1ccccc1/N=C/c1ccc(N(CCCl)CCCl)cc1
inactive: [1] > 40.5 µM | [16] > 100 µM | [17] 29.4 µM | [3] > 100 µM | [4] > 100 µM | [6] > 100 µM | [7] > 100 µM | [18] > 100 µM | [8] > 72.4 µM | [9] > 100 µM | [10] > 100 µM | [19] > 91.2 µM | [11] > 100 µM | [13] > 100 µM | [14] 78 µM | [15] > 78 µM

CN(C)c1ccc(/C=c2\sc3nnc(Cc4ccccc4)n3c2=O)cc1
inactive: [1] > 10 µM | [16] > 10 µM | [17] > 10 µM | [3] > 10 µM | [4] > 10 µM | [5] > 10 µM | [7] > 10 µM | [18] > 10 µM | [8] 28.3 µM | [9] > 10 µM | [10] > 10 µM | [19] > 10 µM | [11] > 10 µM | [12] > 10 µM | [13] 13.7 µM | [14] > 10 µM | [15] > 10 µM

CCC1OC2C(CC=C(C)C)=C3OC(C)(O)C(C)(CC)C(O)C3=C3OC(=O)C=C1C32 (stereo unspecified)
inactive: [1] > 100 µM | [16] 29.9 µM | [4] 34.7 µM | [5] 30.8 µM | [6] 42.8 µM | [7] 74.8 µM | [18] 31.6 µM | [8] 27 µM | [9] 45.8 µM | [10] 50.8 µM | [19] > 100 µM | [11] 54.6 µM | [13] 39.4 µM | [14] 58.9 µM | [15] 33.9 µM

CC(C)N(C(=O)c1cccc(C(=O)N(C(C)C)C(C)C)c1)C(C)C
inactive: [1] > 100 µM | [16] > 100 µM | [17] > 100 µM | [3] > 100 µM | [4] > 100 µM | [5] > 100 µM | [7] > 100 µM | [18] 24.9 µM | [8] > 100 µM | [9] > 100 µM | [10] > 100 µM | [19] > 100 µM | [11] > 100 µM | [12] 20.1 µM | [13] 12.8 µM | [14] > 100 µM | [15] > 100 µM

CSC1(CC(=O)N(C)C)C(=O)Nc2ccccc21 (stereo unspecified)
inactive: [1] > 100 µM | [16] > 100 µM | [2] > 100 µM | [3] > 100 µM | [4] > 100 µM | [5] > 100 µM | [6] > 100 µM | [7] > 100 µM | [18] > 100 µM | [8] > 100 µM | [9] > 100 µM | [10] > 100 µM | [19] > 100 µM | [11] > 100 µM | [12] > 100 µM | [13] > 100 µM | [14] > 100 µM | [15] > 100 µM

O=[N+]([O-])c1ccc(Cc2nc3cc4ccccc4cc3[nH]2)cc1C(F)(F)F
inactive: [1] 17.7 µM | [16] 4.32 µM | [17] 10 µM | [2] 11.6 µM | [4] 13.4 µM | [5] 12.4 µM | [6] 11.4 µM | [7] 14.4 µM | [8] 13.6 µM | [9] 11.9 µM | [10] 24.2 µM | [19] 13.5 µM | [11] 15.6 µM | [13] 19.8 µM | [14] 14.8 µM | [15] 14.1 µM

CC(C)Cc1ccc(C(C)/C=C2\CCC(CN3CCCC3)C2=O)cc1 (stereo unspecified)
inactive: [1] 21.6 µM | [16] 4.5 µM | [17] 1.89 µM | [3] 5.74 µM | [4] 2.77 µM | [5] 13.8 µM | [7] 21.8 µM | [18] 1.84 µM | [8] 3.98 µM | [9] 16.9 µM | [10] 14.6 µM | [19] 19.6 µM | [11] 12.4 µM | [12] 1.76 µM | [13] 7.18 µM | [14] 5.87 µM | [15] 16.7 µM

CN(CC#N)C1CCCC[C@H]1O (stereo partly specified)
inactive: [1] > 100 µM | [16] > 100 µM | [17] > 100 µM | [3] > 100 µM | [4] > 100 µM | [5] > 100 µM | [7] > 100 µM | [18] > 100 µM | [8] > 100 µM | [9] > 100 µM | [10] > 100 µM | [19] > 100 µM | [11] > 100 µM | [12] 46.6 µM | [13] > 90.4 µM | [14] > 100 µM | [15] > 100 µM

CC(C)=CC1C(C(=O)O)C1(C)C (stereo unspecified) [CHRYSANTHEMIC ACID]
inactive: [1] 24 µM | [16] > 750 µM | [17] > 750 µM | [3] > 750 µM | [4] > 750 µM | [6] > 750 µM | [7] > 750 µM | [18] > 750 µM | [8] > 750 µM | [9] > 750 µM | [10] > 750 µM | [19] > 750 µM | [11] > 750 µM | [13] > 750 µM | [14] > 750 µM | [15] > 750 µM
